{
  "source": "patent US20170173059A1",
  "about": "“Novel Combination of Naturally Occurring Compounds to Assist With Suspected Mycobacterial Infections Related to Autoimmune Conditions” (priority 2015, published 2017)",
  "origin": "cited, not measured here",
  "key": {"[1]": {"tested_on": "MAP", "conditions": "bovine and human MAP strains, radiometric culture"}, "[2]": {"tested_on": "family of mycobacteria"}, "[3]": {"conditions": "material data safety sheets / classification"}, "[4]": {"tested_on": "Mycobacterium avium subspecies paratuberculosis (MAP)", "conditions": "selected strains of MAP"}, "[5]": {"tested_on": "multidrug resistance pumps (MDR pumps)"}, "[6]": {"tested_on": "M.Tb", "conditions": "radiometric culture"}, "[7]": {"tested_on": "M. avium", "conditions": "radiometric culture"}, "[8]": {"tested_on": "colon tissue"}, "[9]": {"biological_target": "T1, 5-lipoxygenase (Homo sapiens, UniProt P09917)", "T1 sequence (P09917 1-674)": "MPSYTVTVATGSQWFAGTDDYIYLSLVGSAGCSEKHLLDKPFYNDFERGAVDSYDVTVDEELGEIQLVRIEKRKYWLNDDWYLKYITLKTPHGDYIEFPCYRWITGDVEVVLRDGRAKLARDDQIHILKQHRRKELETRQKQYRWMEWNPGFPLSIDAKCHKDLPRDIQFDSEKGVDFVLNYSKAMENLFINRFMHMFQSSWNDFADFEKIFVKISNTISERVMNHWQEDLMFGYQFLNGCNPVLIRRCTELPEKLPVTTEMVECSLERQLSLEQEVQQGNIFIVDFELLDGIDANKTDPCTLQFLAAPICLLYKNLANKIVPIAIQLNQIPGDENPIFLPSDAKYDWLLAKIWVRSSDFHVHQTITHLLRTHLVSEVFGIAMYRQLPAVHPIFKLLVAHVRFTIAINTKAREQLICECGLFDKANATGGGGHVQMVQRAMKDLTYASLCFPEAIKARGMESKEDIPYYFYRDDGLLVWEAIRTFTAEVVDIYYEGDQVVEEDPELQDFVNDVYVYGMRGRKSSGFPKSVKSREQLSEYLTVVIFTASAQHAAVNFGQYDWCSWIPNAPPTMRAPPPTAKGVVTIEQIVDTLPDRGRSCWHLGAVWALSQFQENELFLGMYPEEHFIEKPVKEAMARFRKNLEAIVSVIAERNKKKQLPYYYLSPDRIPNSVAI"}, "[10]": {"tested_on": "patients with inflammatory bowel disease", "conditions": "Boswellia group versus sulfasalazine control group"}},
  "note": "“Also recorded” adds a separate entry of the source. Where two headings read alike, the source gives them in different places.",
  "data": [
    {"molecule": "CC1=C(/C=C/C(C)=C/C=C/C(C)=C\\C(=O)O)C(C)(C)CCC1", "note": "[13 cis-retinoic acid]", "values": [
      {"measurement": "inhibition of MAP strains in vitro", "setting": "[1]", "result": "inhibitory effects"}
    ]},
    {"molecule": "CC1(C)S[C@@H]2[C@H](NC(=O)[C@H](N)c3ccc(O)cc3)C(=O)N2[C@H]1C(=O)O", "note": "[Amoxicillin]", "values": [
      {"measurement": "action against the family of mycobacteria", "setting": "[2]", "result": "little to no action"}
    ]},
    {"molecule": "O=CC=Cc1ccccc1", "note": "[Cinnamaldehyde]", "values": [
      {"measurement": "safety listing (GRAS)", "setting": "[3]", "result": "GRAS"},
      {"measurement": "inhibition of MAP in vitro", "setting": "[4]", "result": "shown to inhibit"}
    ]},
    {"molecule": "COc1cc(C2Oc3cc(-c4cc(=O)c5c(O)cc(O)cc5o4)ccc3OC2CO)cc(OC)c1O", "note": "(stereo not drawn) [Example 5-MHC, 5-methoxyhydnocarpin]", "values": [
      {"measurement": "multi-drug resistance pump inhibition", "setting": "[5]", "result": "multi-drug resistance pump inhibitor"}
    ]},
    {"molecule": "Cc1ncc([N+](=O)[O-])n1CCO", "note": "[Metronidazole]", "values": [
      {"measurement": "action against the family of mycobacteria", "setting": "[2]", "result": "little to no action"}
    ]},
    {"molecule": "CC[C@@]1([C@@H]2O[C@@H]([C@H]3O[C@@](O)(CO)[C@H](C)C[C@@H]3C)C[C@@H]2C)CC[C@H]([C@]2(C)CC[C@]3(C[C@H](O)[C@@H](C)[C@@H]([C@@H](C)[C@@H](OC)[C@H](C)C(=O)O)O3)O2)O1", "note": "[Monensin]", "values": [
      {"measurement": "inhibition of MAP strains in vitro", "setting": "[1]", "result": "displayed inhibition of MAP"}
    ]},
    {"molecule": "CC1=C(/C=C/C(C)=C/C=C/C(C)=C/CO)C(C)(C)CCC1", "note": "[Retinol, (2E,4E,6E,8E)-3,7-Dimethyl-9-(2,6,6-trimethyl-cyclohex-1-enyl)-nona-2,4,6,8-tetraen-1-ol]", "values": [
      {"measurement": "inhibition of M.Tb", "setting": "[6]", "result": "strong inhibitory effect"},
      {"measurement": "inhibition of M. avium", "setting": "[7]", "result": "strong inhibitory effect"},
      {"measurement": "inhibition of MAP strains in vitro", "setting": "[1]", "result": "strong inhibitory effect"}
    ]},
    {"molecule": "O=C/C=C/c1ccccc1", "note": "[Trans-cinnamaldehyde]", "values": [
      {"measurement": "safety listing (GRAS)", "setting": "[3]", "result": "GRAS"},
      {"measurement": "inhibition of MAP in vitro", "setting": "[4]", "result": "shown to inhibit"}
    ]},
    {"molecule": "C=C1CC[C@H](O)C/C1=C/C=C1\\CCC[C@]2(C)[C@@H]([C@H](C)CCCC(C)C)CC[C@@H]12", "note": "[Vitamin D3, cholecalciferol]", "values": [
      {"measurement": "inhibition of MAP strains in vitro", "setting": "[1]", "result": "shown inhibition"},
      {"measurement": "anti-neoplastic activity in colon tissue", "setting": "[8]", "result": "specific anti-neoplastic activity"},
      {"measurement": "anti-neoplastic activity in colon tissue", "setting": "[8]; listed as D3", "result": "protect against neoplastic development"}
    ]},
    {"molecule": "CC(=O)O[C@@H]1CC[C@@]2(C)[C@@H](CC[C@]3(C)[C@@H]2C(=O)C=C2[C@@H]4[C@@H](C)[C@H](C)CC[C@]4(C)CC[C@]23C)[C@@]1(C)C(=O)O", "note": "[acetyl-11-keto-beta-boswellic acid]", "values": [
      {"measurement": "effect on 5-lipoxygenase", "setting": "[9]", "result": "influenced"}
    ]},
    {"molecule": "CC(=O)OC/C=C(C)/C=C/C=C(C)/C=C/C1=C(C)CCCC1(C)C", "note": "[retinyl acetate]", "values": [
      {"measurement": "inhibition of MAP strains in vitro", "setting": "[1]", "result": "inhibitory effects; also recorded: highest inhibition of the group"}
    ]},
    {"molecule": "O=C(O)c1cc(/N=N/c2ccc(S(=O)(=O)Nc3ccccn3)cc2)ccc1O", "note": "[sulfasalazine]", "values": [
      {"measurement": "remission rates", "setting": "[10]", "result": 75, "unit": "%"}
    ]},
    {"molecule": "CC1=C(/C=C/C(C)=C/C=C/C(C)=C/C=C/C=C(C)/C=C/C=C(C)/C=C/C2=C(C)CCCC2(C)C)C(C)(C)CCC1", "note": "[β carotene]", "values": [
      {"measurement": "inhibition of MAP strains in vitro", "setting": "[1]", "result": "inhibitory effects"}
    ]},
    {"molecule": "Vitamin A", "values": [
      {"measurement": "inhibition of MAP strains in vitro", "setting": "[1]", "result": "in vitro inhibition"},
      {"measurement": "inhibition of MAP strains in vitro", "setting": "[1]; listed as vitamin A", "result": "found to inhibit"}
    ]}
  ]
}
